Data taken from ChEMBL document CHEMBL3045570, “Rational herbicide design by inhibition of tryptophan biosynthesis” (Bioorg Med Chem Lett, 1999).
Calls of active or inactive are those of the source. No cut-off for these calls is given here.

Assays:
[1] = Inhibition of Salmonella enterica subsp. enterica serovar Typhimurium tryptophan synthase alpha subunit; settings: read-out: I50
[2] = test system: Arabidopsis thaliana; assay: Herbicidal activity against Arabidopsis thaliana seedlings assessed as injury at 8 to 1000 uM; assay type: functional, organism-based
[3] = test system: Arabidopsis thaliana; assay: Herbicidal activity against Arabidopsis thaliana seedlings assessed as chlorosis at 8 to 1000 uM; assay type: functional, organism-based
[4] = test system: Chenopodium album; assay: Herbicidal activity against Chenopodium album assessed as injury at 4 kg/ha applied as spray during postemergence measured after 2 weeks; assay type: functional
[5] = test system: Arabidopsis thaliana; assay: Herbicidal activity against Arabidopsis thaliana seedlings assessed as injury at 8 to 1000 uM in presence of tryptophan; assay type: functional, organism-based
[6] = test system: Amaranthus viridis; assay: Herbicidal activity against Amaranthus viridis assessed as injury at 4 kg/ha applied as spray during postemergence measured after 2 weeks; assay type: functional
[7] = test system: Arabidopsis thaliana; assay: Herbicidal activity against Arabidopsis thaliana seedlings assessed as injury at 31 to 1000 uM; assay type: functional, organism-based
[8] = test system: Arabidopsis thaliana; assay: Herbicidal activity against Arabidopsis thaliana seedlings assessed as injury at 8 to 16 uM; assay type: functional, organism-based
[9] = test system: Arabidopsis thaliana; assay: Herbicidal activity against Arabidopsis thaliana seedlings assessed as chlorosis at 125 to 1000 uM; assay type: functional, organism-based
[10] = biological target: T1, Tryptophan synthase alpha /beta chains (Escherichia coli K-12, UniProt P0A877+P0A879); assay: Binding affinity to tryptophan synthase alpha2/beta2 complex in Escherichia coli K-12 by equlibrium dialysis method; assay type: protein-complex assay
T1 sequence (P0A879 whole entry): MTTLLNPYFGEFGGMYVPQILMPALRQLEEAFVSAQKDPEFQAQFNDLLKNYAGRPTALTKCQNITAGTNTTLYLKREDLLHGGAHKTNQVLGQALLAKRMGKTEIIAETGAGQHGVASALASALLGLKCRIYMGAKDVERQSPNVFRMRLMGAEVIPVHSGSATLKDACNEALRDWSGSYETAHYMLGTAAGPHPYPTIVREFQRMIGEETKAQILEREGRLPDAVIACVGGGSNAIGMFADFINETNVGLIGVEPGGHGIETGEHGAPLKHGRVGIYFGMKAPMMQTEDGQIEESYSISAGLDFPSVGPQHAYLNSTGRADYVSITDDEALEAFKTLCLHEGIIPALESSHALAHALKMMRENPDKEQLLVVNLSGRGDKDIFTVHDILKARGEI
T1 sequence (P0A877 whole entry): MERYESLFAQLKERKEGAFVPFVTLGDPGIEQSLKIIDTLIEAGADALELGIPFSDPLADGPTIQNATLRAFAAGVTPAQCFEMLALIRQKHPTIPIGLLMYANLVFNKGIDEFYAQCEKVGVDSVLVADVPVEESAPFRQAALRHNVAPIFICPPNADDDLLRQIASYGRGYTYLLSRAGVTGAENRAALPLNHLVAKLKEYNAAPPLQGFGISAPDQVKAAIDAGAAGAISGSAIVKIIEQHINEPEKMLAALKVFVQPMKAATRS

SMILES	IC50 [1]	Activity [2]	Activity [3]	Activity [4]	Activity [5]	Activity [6]	Activity [7]	Activity [8]	Activity [9]	Ki [10]
O=P(O)(O)/C=C/CCSc1ccccc1O	570 nM	Active	Active	<=80%	inactive	<=80%	–	–	–	–
O=P(O)(O)/C=C/CC[S+]([O-])c1ccccc1O (centres undefined)	440 nM	Active	Active	<=80%	inactive	<=80%	–	–	–	–
O=P(O)(O)/C=C/CCS(=O)(=O)c1ccccc1O	360 nM	–	–	inactive	–	inactive	–	–	–	–
Nc1ccccc1SCCCCP(=O)(O)O	400 nM	–	–	<=65%	–	<=65%	–	–	–	–
O=P(O)(O)CCCCSc1ccccc1O	130 nM	–	–	<=80%	inactive	<=80%	Active	inactive	Active	–
O=P(O)(O)CCCc1c[nH]c2ccccc12	12500 nM	–	–	–	–	–	–	–	–	–
O=P(O)(O)OCCCc1c[nH]c2ccccc12	5000 nM	–	–	–	–	–	–	–	–	15000 nM
O=P(O)(O)CCCCc1c[nH]c2ccccc12	20000 nM	–	–	–	–	–	–	–	–	–
